From PubChem BioAssay (NCI)
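Tested at 5 concentrations; 48 h exposure; 96-well plates; endpoints linearly interpolated, else capped at highest concentration. TGI: concentration producing complete growth inhibition.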

Experiments:
Assay in all cases: NCI anticancer screen, dose series, 48 h
KM12 colon = system: KM12 colon
MDA-MB-231 breast = system: MDA-MB-231 breast
ACHN renal = system: ACHN renal
HOP-62 NSCLC = system: HOP-62 NSCLC
NCI-H23 lung = system: NCI-H23 lung
MDA-N = system: MDA-N
OVCAR-3 ovarian = system: OVCAR-3 ovarian
HCT-116 colon = system: HCT-116 colon
CCRF-CEM leukemia = system: CCRF-CEM leukemia
SNB-19 CNS = system: SNB-19 CNS
HCT-15 colon = system: HCT-15 colon
SN12C renal = system: SN12C renal
SNB-75 CNS = system: SNB-75 CNS
LOX IMVI melanoma = system: LOX IMVI melanoma
OVCAR-5 ovarian = system: OVCAR-5 ovarian
DU-145 prostate = system: DU-145 prostate
SK-MEL-28 melanoma = system: SK-MEL-28 melanoma
SF-295 CNS = system: SF-295 CNS
MOLT-4 leukemia = system: MOLT-4 leukemia
HS 578T breast = system: HS 578T breast
MCF7 breast = system: MCF7 breast
SF-539 CNS = system: SF-539 CNS
UACC-62 melanoma = system: UACC-62 melanoma
SK-MEL-5 melanoma = system: SK-MEL-5 melanoma
RPMI-8226 leukemia = system: RPMI-8226 leukemia
EKVX NSCLC = system: EKVX NSCLC
NCI/ADR-RES ovarian = system: NCI/ADR-RES ovarian
HOP-92 NSCLC = system: HOP-92 NSCLC
HT29 colon = system: HT29 colon
MDA-MB-435 = system: MDA-MB-435
SF-268 CNS = system: SF-268 CNS
MALME-3M melanoma = system: MALME-3M melanoma
OVCAR-8 ovarian = system: OVCAR-8 ovarian
PC-3 prostate = system: PC-3 prostate
SW-620 colon = system: SW-620 colon
NCI-H460 lung = system: NCI-H460 lung
RXF 393 renal = system: RXF 393 renal
UACC-257 melanoma = system: UACC-257 melanoma
SR leukemia = system: SR leukemia
HL-60(TB) leukemia = system: HL-60(TB) leukemia
A549 NSCLC = system: A549 NSCLC
A498 renal = system: A498 renal
COLO 205 colon = system: COLO 205 colon
CAKI-1 renal = system: CAKI-1 renal
K-562 leukemia = system: K-562 leukemia
SK-MEL-2 melanoma = system: SK-MEL-2 melanoma
NCI-H522 lung = system: NCI-H522 lung
OVCAR-4 ovarian = system: OVCAR-4 ovarian
U251 CNS = system: U251 CNS
HCC-2998 colon = system: HCC-2998 colon
T-47D breast = system: T-47D breast
SK-OV-3 ovarian = system: SK-OV-3 ovarian
M14 melanoma = system: M14 melanoma
IGROV1 ovarian = system: IGROV1 ovarian
UO-31 renal = system: UO-31 renal
TK-10 renal = system: TK-10 renal
786-0 renal = system: 786-0 renal
NCI-H226 lung = system: NCI-H226 lung
BT-549 breast = system: BT-549 breast

Measured: TGI

Cc1nc2nn[nH]n2c(=O)c1CCO
85.7 µM: SNB-75 CNS
not listed: BT-549 breast
> 100 µM: all other assays above

COC1(C)OC[C@@]2(C)OC(C)C1(C)C2O[Si](C(C)C)(C(C)C)C(C)C (some centres undefined)
70.9 µM: EKVX NSCLC
62.2 µM: ACHN renal
50.9 µM: MOLT-4 leukemia
62.9 µM: NCI-H460 lung
42.6 µM: LOX IMVI melanoma
51 µM: MALME-3M melanoma
47.3 µM: SF-295 CNS
78.5 µM: IGROV1 ovarian
96.7 µM: UO-31 renal
82.3 µM: K-562 leukemia
80.2 µM: TK-10 renal
71.3 µM: T-47D breast
50 µM: OVCAR-3 ovarian
58.4 µM: SN12C renal
54.6 µM: CCRF-CEM leukemia
85.7 µM: SR leukemia
63 µM: HOP-92 NSCLC
86.8 µM: HS 578T breast
40.8 µM: HCC-2998 colon
45.8 µM: NCI-H226 lung
32.9 µM: MCF7 breast
40.4 µM: HL-60(TB) leukemia
32.3 µM: COLO 205 colon
71.8 µM: OVCAR-5 ovarian
57 µM: RXF 393 renal
52.5 µM: SK-MEL-5 melanoma
48 µM: HCT-15 colon
60.3 µM: NCI/ADR-RES ovarian
47.6 µM: UACC-257 melanoma
62.5 µM: NCI-H23 lung
59.1 µM: NCI-H522 lung
89.3 µM: RPMI-8226 leukemia
88 µM: CAKI-1 renal
69.4 µM: SNB-75 CNS
45.2 µM: SK-MEL-2 melanoma
not listed: BT-549 breast
> 100 µM: all other assays above

CCOC(=O)Nn1cnnc1C
not listed: SNB-75 CNS | DU-145 prostate | SK-MEL-28 melanoma | HS 578T breast | SF-268 CNS | HL-60(TB) leukemia
> 100 µM: all other assays above

COC(=O)c1cc(CC2Cc3cc4c(cc3C2)CCC4)cc2c1CCC2
55.7 µM: MOLT-4 leukemia
94 µM: SR leukemia
not listed: UACC-62 melanoma | BT-549 breast
> 100 µM: all other assays above

N#Cc1nc(-c2ccccc2C(=O)O)oc1N
not listed: BT-549 breast
> 100 µM: all other assays above
